# Measurements as given in US12285431B2, “Treatment of Rb-negative tumors using topoisomerase inhibitors in combination with cyclin dependent kinase 4/6 inhibitors” (G1 Therapeutics, Inc., priority 2014, dated 2025).
# Test system: MCF7 (breast adenocarcinoma, Rb-positive)
# Assay: Cellular proliferation assay (CellTiter-Glo), MCF7
# Type: cell-based
# Details: Homo sapiens, MCF7, 144 h, cell viability after six days
# Protocol: (§1) Further cellular proliferation assays were conducted using the following cancer cell lines: MCF7 (breast adenocarcinoma—Rb-positive), ZR-75-1 (breast ductal carcinoma—Rb-positive), H69 (human small cell lung cancer—Rb-negative) cells, or A2058 (human metastatic melanoma cells—Rb-negative). These cells were seeded in Costar (Tewksbury, Massachusetts) 3093 96 well tissue culture treated white walled/clear bottom plates. Cells were treated with the compounds of Table 1 as nine point dose response dilution series from 10 uM to 1 nM. Cells were exposed to compounds and then cell viability was determined after either four (H69) or six (MCF7, ZR75-1, A2058) days as indicated using the CellTiter-Glo® luminescent cell viability assay (CTG; Promega, Madison, Wisconsin, United States of America) following the manufacturer's recommendations. Plates were read on BioTek (Winooski, Vermont) Syngergy2 multi-mode plate reader. The Relative Light Units (RLU) were plotted as a result of variable molar concentration and data was analyzed using Graphpad (LaJolla, California) Prism 5 statistical software to determine the EC50 for each compound.
row,Structure (SMILES),EC50
1,CCC(C)CN1CCN(c2ccc(Nc3ncc4cc5n(c4n3)C3(CCCC3)CNC5=O)nc2)CC1 (stereo not drawn) [AAA],320 nM
2,CC(C)(O)CN1CCN(c2ccc(Nc3ncc4cc5n(c4n3)C3(CCCC3)CNC5=O)nc2)CC1 [EEE],453 nM
3,CCN1[C@H](C)CN(c2ccc(Nc3ncc4cc5n(c4n3)C3(CCCCC3)CNC5=O)nc2)C[C@@H]1C [FF],140 nM
4,CCN(CC)C1CCN(C(=O)c2ccc(Nc3ncc4cc5n(c4n3)C3(CCCCC3)CNC5=O)nc2)C1 (stereo not drawn) [JJ],122 nM
5,C[C@H]1CN(c2ccc(Nc3ncc4cc5n(c4n3)C3(CCCCC3)CNC5=O)nc2)CCN1 [KK],333 nM
6,CC1CCN(C2CCN(c3ccc(Nc4ncc5cc6n(c5n4)C4(CCCCC4)CNC6=O)nc3)CC2)C1 (stereo not drawn) [K],43 nM
7,O=C1NCC2(CCCCC2)n2c1cc1cnc(Nc3ccc(C(=O)N4CCN(C5CCC5)CC4)cn3)nc12 [LL],96 nM
8,CC(C)N1CCN(c2ccc(Nc3ncc4cc5n(c4n3)C3(CCCCC3)CNC5=O)nc2)C[C@H]1C [L],506 nM
9,O=C1NCC2(CCCC2)n2c1cc1cnc(Nc3ccc(C(=O)N4CCN(CC5CC5)CC4)cn3)nc12 [OOO],138 nM
10,C[C@@H](O)CN1CCN(c2ccc(Nc3ncc4cc5n(c4n3)C3(CCCCC3)CNC5=O)nc2)CC1 [S],76 nM

# Test system: A2058 (human metastatic melanoma cells, Rb-negative)
# Assay: Cellular proliferation assay (CellTiter-Glo), A2058
# Type: cell-based
# Details: A2058, 144 h, cell viability after six days
# Protocol: as §1
row,Structure (SMILES),EC50
1,CCC(C)CN1CCN(c2ccc(Nc3ncc4cc5n(c4n3)C3(CCCC3)CNC5=O)nc2)CC1 (stereo not drawn) [AAA],> 3000 nM
2,CC1(C)CN(c2ccc(Nc3ncc4cc5n(c4n3)C3(CCCCC3)CNC5=O)nc2)CCN1C1CC1 [BB],1640 nM
3,CC(C)(O)CN1CCN(c2ccc(Nc3ncc4cc5n(c4n3)C3(CCCC3)CNC5=O)nc2)CC1 [EEE],> 3000 nM
4,CCN(CC)C1CCN(C(=O)c2ccc(Nc3ncc4cc5n(c4n3)C3(CCCCC3)CNC5=O)nc2)C1 (stereo not drawn) [JJ],> 3000 nM
5,C[C@H]1CN(c2ccc(Nc3ncc4cc5n(c4n3)C3(CCCCC3)CNC5=O)nc2)CCN1 [KK],1380 nM
6,CC1CCN(C2CCN(c3ccc(Nc4ncc5cc6n(c5n4)C4(CCCCC4)CNC6=O)nc3)CC2)C1 (stereo not drawn) [K],1790 nM
7,O=C1NCC2(CCCCC2)n2c1cc1cnc(Nc3ccc(C(=O)N4CCN(C5CCC5)CC4)cn3)nc12 [LL],> 3000 nM
8,CC(C)N1CCN(c2ccc(Nc3ncc4cc5n(c4n3)C3(CCCCC3)CNC5=O)nc2)C[C@H]1C [L],> 3000 nM
9,O=C1NCC2(CCCC2)n2c1cc1cnc(Nc3ccc(C(=O)N4CCN(CC5CC5)CC4)cn3)nc12 [OOO],> 3000 nM
10,CCN(CC)C1CCN(c2ccc(Nc3ncc4cc5n(c4n3)C3(CCCCC3)CNC5=O)nc2)C1 (stereo not drawn) [QQ],> 3000 nM
11,C[C@@H](O)CN1CCN(c2ccc(Nc3ncc4cc5n(c4n3)C3(CCCCC3)CNC5=O)nc2)CC1 [S],> 3000 nM
12,O=C1NCC2(CCCCC2)n2c1cc1cnc(Nc3ccc(N4CCC(N5CCC(C(F)(F)F)CC5)CC4)cn3)nc12 [X],> 3000 nM

# Test system: H69 (human small cell lung cancer, Rb-negative) cells
# Assay: Cellular proliferation assay (CellTiter-Glo), H69
# Type: cell-based
# Details: NCI-H69, 96 h, cell viability after four days
# Protocol: as §1
row,Structure (SMILES),EC50
1,CCC(C)CN1CCN(c2ccc(Nc3ncc4cc5n(c4n3)C3(CCCC3)CNC5=O)nc2)CC1 (stereo not drawn) [AAA],> 3000 nM
2,CC1(C)CN(c2ccc(Nc3ncc4cc5n(c4n3)C3(CCCCC3)CNC5=O)nc2)CCN1C1CC1 [BB],2940 nM
3,CC(C)(O)CN1CCN(c2ccc(Nc3ncc4cc5n(c4n3)C3(CCCC3)CNC5=O)nc2)CC1 [EEE],> 3000 nM
4,CCN(CC)C1CCN(C(=O)c2ccc(Nc3ncc4cc5n(c4n3)C3(CCCCC3)CNC5=O)nc2)C1 (stereo not drawn) [JJ],> 3000 nM
5,C[C@H]1CN(c2ccc(Nc3ncc4cc5n(c4n3)C3(CCCCC3)CNC5=O)nc2)CCN1 [KK],2420 nM
6,CC1CCN(C2CCN(c3ccc(Nc4ncc5cc6n(c5n4)C4(CCCCC4)CNC6=O)nc3)CC2)C1 (stereo not drawn) [K],> 3000 nM
7,O=C1NCC2(CCCCC2)n2c1cc1cnc(Nc3ccc(C(=O)N4CCN(C5CCC5)CC4)cn3)nc12 [LL],> 3000 nM
8,CC(C)N1CCN(c2ccc(Nc3ncc4cc5n(c4n3)C3(CCCCC3)CNC5=O)nc2)C[C@H]1C [L],2160 nM
9,O=C1NCC2(CCCC2)n2c1cc1cnc(Nc3ccc(C(=O)N4CCN(CC5CC5)CC4)cn3)nc12 [OOO],> 3000 nM
10,CCN(CC)C1CCN(c2ccc(Nc3ncc4cc5n(c4n3)C3(CCCCC3)CNC5=O)nc2)C1 (stereo not drawn) [QQ],> 3000 nM
11,C[C@@H](O)CN1CCN(c2ccc(Nc3ncc4cc5n(c4n3)C3(CCCCC3)CNC5=O)nc2)CC1 [S],> 3000 nM
12,O=C1NCC2(CCCCC2)n2c1cc1cnc(Nc3ccc(N4CCC(N5CCC(C(F)(F)F)CC5)CC4)cn3)nc12 [X],> 3000 nM

# Target: CDK4/CyclinD1 (Homo sapiens, UniProt P11802)
# Assay: CDK4/cyclinD1 kinase assay (Nanosyn, Caliper microfluidic kinase detection)
# Type: biochemical
# Details: Table 2; 12-point dose-response, ATP at Km (200 μM), 10 hr; read-out: CDK4/CycD1 IC50
# Protocol: The assays were performed using microfluidic kinase detection technology (Caliper Assay Platform). The compounds were tested in 12-point dose-response format in singlicate at Km for ATP. Phosphoacceptor substrate peptide concentration used was 1 μM for all assays and Staurosporine was used as the reference compound for all assays. Specifics of each assay are as described below:
# CDK4/CyclinD1: Enzyme concentration: 1 nM; ATP concentration: 200 μM; Incubation time: 10 hr.
# CDK4/CyclinD1, sequence (P11802 whole entry, species assumed): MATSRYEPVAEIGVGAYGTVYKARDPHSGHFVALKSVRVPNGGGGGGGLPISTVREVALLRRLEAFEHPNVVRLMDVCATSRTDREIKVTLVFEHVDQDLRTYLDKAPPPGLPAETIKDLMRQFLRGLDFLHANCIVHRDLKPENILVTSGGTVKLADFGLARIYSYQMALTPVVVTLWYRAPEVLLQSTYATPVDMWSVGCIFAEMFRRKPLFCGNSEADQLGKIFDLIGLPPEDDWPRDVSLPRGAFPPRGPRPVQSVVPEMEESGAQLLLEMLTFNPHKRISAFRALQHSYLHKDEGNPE
# CDK4/CyclinD1, sequence (P24385 whole entry partner, species assumed): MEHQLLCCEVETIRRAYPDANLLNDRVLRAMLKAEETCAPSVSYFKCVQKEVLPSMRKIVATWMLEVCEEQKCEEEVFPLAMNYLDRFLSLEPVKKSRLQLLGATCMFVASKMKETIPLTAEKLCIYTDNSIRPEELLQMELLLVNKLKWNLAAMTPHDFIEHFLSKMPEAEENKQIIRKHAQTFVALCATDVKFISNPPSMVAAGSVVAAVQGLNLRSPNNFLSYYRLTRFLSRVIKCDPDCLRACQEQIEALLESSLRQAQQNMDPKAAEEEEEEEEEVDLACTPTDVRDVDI
row,Structure (SMILES),IC50
1,CCC(C)CN1CCN(c2ccc(Nc3ncc4cc5n(c4n3)C3(CCCC3)CNC5=O)nc2)CC1 (stereo not drawn) [AAA],2.3 nM
2,CC1(C)CN(c2ccc(Nc3ncc4cc5n(c4n3)C3(CCCCC3)CNC5=O)nc2)CCN1C1CC1 [BB],0.8 nM
3,CC(C)(C)CCN1CCN(c2ccc(Nc3ncc4cc5n(c4n3)C3(CCCC3)CNC5=O)nc2)CC1(C)C [CCC],2 nM
4,C[C@@H]1CN(c2ccc(Nc3ncc4cc5n(c4n3)C3(CCCC3)CNC5=O)nc2)C[C@H](C)N1 [DDD],9.5 nM
5,C[C@@H]1CN(c2ccc(Nc3ncc4cc5n(c4n3)C3(CCCCC3)CNC5=O)nc2)C[C@H](C)N1C [DD],1.9 nM
6,CCC(C)CN1CCN(c2ccc(Nc3ncc4cc5n(c4n3)C3(CCCC3)CNC5=O)nc2)CC1 (stereo not drawn) [FFF],4.7 nM
7,O=C1NCC2(CCCCC2)n2c1cc1cnc(Nc3ccc(N4CCN(C5CCC5)CC4)cn3)nc12 [F],1.5 nM
8,CC(C)N1CCN(c2ccc(Nc3ncc4cc5n(c4n3)C3(CCCC3)CNC5=O)nc2)CC1C (stereo not drawn) [GGG],13.7 nM
9,CC1CN(c2ccc(Nc3ncc4cc5n(c4n3)C3(CCCCC3)CNC5=O)nc2)CCN1CCC(C)(C)C (stereo not drawn) [G],1.5 nM
10,O=C1NCC2(CCCC2)n2c1cc1cnc(Nc3ccc(N4CCC(N5CCCCC5)CC4)cn3)nc12 [HHH],6.8 nM
11,CCN(CC)C1CCN(C(=O)c2ccc(Nc3ncc4cc5n(c4n3)C3(CCCCC3)CNC5=O)nc2)C1 (stereo not drawn) [JJ],1.4 nM
12,C[C@H]1CN(c2ccc(Nc3ncc4cc5n(c4n3)C3(CCCCC3)CNC5=O)nc2)CCN1 [KK],2.3 nM
13,CC1CCN(C2CCN(c3ccc(Nc4ncc5cc6n(c5n4)C4(CCCCC4)CNC6=O)nc3)CC2)C1 (stereo not drawn) [K],1 nM
14,O=C1NCC2(CCCCC2)n2c1cc1cnc(Nc3ccc(C(=O)N4CCN(C5CCC5)CC4)cn3)nc12 [LL],2 nM
15,O=C1NCC2(CCCC2)n2c1cc1cnc(Nc3ccc(C(=O)N4CCN(CC5CC5)CC4)cn3)nc12 [OOO],2.4 nM
16,CCN(CC)C1CCN(c2ccc(Nc3ncc4cc5n(c4n3)C3(CCCCC3)CNC5=O)nc2)C1 (stereo not drawn) [QQ],4.1 nM
17,O=C1NCC2(CCCCC2)n2c1cc1cnc(Nc3ccc(N4CCC(N5CCC(C(F)(F)F)CC5)CC4)cn3)nc12 [X],0.9 nM

# Test system: HS68 cells
# Assay: G1 arrest (cellular G1 and S-phase) assay, propidium iodide flow cytometry
# Type: cell-based, human
# Details: Homo sapiens, Hs68, HS68 cells
# Protocol: HS68 cells (human skin fibroblast cell line (Rb-positive)) were stained with propidium iodide staining solution and run on Dako Cyan Flow Cytometer. The fraction of cells in G0-G1 DNA cell cycle versus the fraction in S-phase DNA cell cycle was determined using FlowJo 7.2.2 analysis.
# The compounds listed in Table 1 were tested for their ability to arrest HS68 cells at the G1 phase of the cell cycle.
row,Structure (SMILES),EC50
1,CC1(C)CN(c2ccc(Nc3ncc4cc5n(c4n3)C3(CCCCC3)CNC5=O)nc2)CCN1C1CC1 [BB],75 nM
2,CC(C)(C)CCN1CCN(c2ccc(Nc3ncc4cc5n(c4n3)C3(CCCC3)CNC5=O)nc2)CC1(C)C [CCC],250 nM
3,C[C@@H]1CN(c2ccc(Nc3ncc4cc5n(c4n3)C3(CCCC3)CNC5=O)nc2)C[C@H](C)N1 [DDD],350 nM
4,C[C@@H]1CN(c2ccc(Nc3ncc4cc5n(c4n3)C3(CCCCC3)CNC5=O)nc2)C[C@H](C)N1C [DD],100 nM
5,CC(C)(O)CN1CCN(c2ccc(Nc3ncc4cc5n(c4n3)C3(CCCC3)CNC5=O)nc2)CC1 [EEE],250 nM
6,CCN1[C@H](C)CN(c2ccc(Nc3ncc4cc5n(c4n3)C3(CCCCC3)CNC5=O)nc2)C[C@@H]1C [FF],80 nM
7,O=C1NCC2(CCCCC2)n2c1cc1cnc(Nc3ccc(N4CCN(C5CCC5)CC4)cn3)nc12 [F],175 nM
8,CC(C)N1CCN(c2ccc(Nc3ncc4cc5n(c4n3)C3(CCCC3)CNC5=O)nc2)CC1C (stereo not drawn) [GGG],350 nM
9,CC1CN(c2ccc(Nc3ncc4cc5n(c4n3)C3(CCCCC3)CNC5=O)nc2)CCN1CCC(C)(C)C (stereo not drawn) [G],175 nM
10,O=C1NCC2(CCCC2)n2c1cc1cnc(Nc3ccc(N4CCC(N5CCCCC5)CC4)cn3)nc12 [HHH],250 nM
11,CCN(CC)C1CCN(C(=O)c2ccc(Nc3ncc4cc5n(c4n3)C3(CCCCC3)CNC5=O)nc2)C1 (stereo not drawn) [JJ],90 nM
12,C[C@H]1CN(c2ccc(Nc3ncc4cc5n(c4n3)C3(CCCCC3)CNC5=O)nc2)CCN1 [KK],22 nM
13,CC1CCN(C2CCN(c3ccc(Nc4ncc5cc6n(c5n4)C4(CCCCC4)CNC6=O)nc3)CC2)C1 (stereo not drawn) [K],28 nM
14,O=C1NCC2(CCCCC2)n2c1cc1cnc(Nc3ccc(C(=O)N4CCN(C5CCC5)CC4)cn3)nc12 [LL],125 nM
15,CC(C)N1CCN(c2ccc(Nc3ncc4cc5n(c4n3)C3(CCCCC3)CNC5=O)nc2)C[C@H]1C [L],65 nM
16,O=C1NCC2(CCCC2)n2c1cc1cnc(Nc3ccc(C(=O)N4CCN(CC5CC5)CC4)cn3)nc12 [OOO],200 nM
17,C[C@@H](O)CN1CCN(c2ccc(Nc3ncc4cc5n(c4n3)C3(CCCCC3)CNC5=O)nc2)CC1 [S],150 nM
18,O=C1NCC2(CCCCC2)n2c1cc1cnc(Nc3ccc(N4CCC(N5CCC(C(F)(F)F)CC5)CC4)cn3)nc12 [X],65 nM
